Consider 19 compounds from PubChem BioAssay (NCI).

Some test systems named below: SK-MEL-5 melanoma; MOLT-4 leukemia; SNB-19 CNS; SK-MEL-28 melanoma; SF-268 CNS; SK-MEL-2 melanoma; NCI-H226 lung; OVCAR-8 ovarian; COLO 205 colon; NCI-H522 lung.
Test in all cases: inhibition of tumour cell growth, NCI panel, 48 h

SMILES strings stand for the structures.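 Cells were grown in 96-well plates and exposed to each compound for 48 hours at five concentrations; endpoints were interpolated linearly between bracketing concentrations, or set to the highest concentration if not reached. Here, GI50 denotes the concentration required for 50% inhibition of growth. The concentration for full growth arrest is given as TGI.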 Some results are limits rather than exact numbers.

For `C/C(=N/NC(N)=S)c1ccc[nH]1`, the TGI in the experiment with SK-MEL-5 melanoma, in the experiment with MOLT-4 leukemia, in the experiment on SNB-19 CNS, in the experiment on SK-MEL-28 melanoma, in the experiment on SF-268 CNS and with SK-MEL-2 melanoma was over 100 µM throughout. For the same compound, the TGI in the experiment with NCI-H226 lung, in the experiment with OVCAR-8 ovarian, in the experiment on COLO 205 colon and in the experiment with NCI-H522 lung was over 100 µM each time.
With `C[C@@H]1Nc2cc(NC(=O)OCCF)nc(N)c2N=C1c1ccccc1`, the TGI was under 0.0001 µM in the experiment with SK-MEL-5 melanoma; under 0.0001 µM with MOLT-4 leukemia; over 100 µM with SK-MEL-28 melanoma; 30 µM in the experiment on OVCAR-8 ovarian; under 0.0001 µM with COLO 205 colon; 0.509 µM with NCI-H522 lung. For the same compound, the GI50 with SNB-19 CNS and with NCI-H226 lung was under 0.0001 µM throughout.
Take `CC(=O)Nc1ccc(/C=C/c2ccc(NC(=O)Nc3ccc(/C=C/c4ccc(NC(C)=O)cc4S(=O)(=O)O)c(S(=O)(=O)O)c3)cc2S(=O)(=O)O)c(S(=O)(=O)O)c1`: the TGI in the experiment with SK-MEL-5 melanoma, in the experiment with MOLT-4 leukemia, in the experiment with SNB-19 CNS, in the experiment with SK-MEL-28 melanoma, with SF-268 CNS and in the experiment with SK-MEL-2 melanoma was over 100 µM each time. The TGI in the experiment with NCI-H226 lung, in the experiment with OVCAR-8 ovarian, in the experiment with COLO 205 colon and in the experiment on NCI-H522 lung was over 100 µM each time.
Consider `COCc1nc2c(OC)c(-c3nc4nc(N5CCN(C)CC5)ccc4[nH]3)cc(OC)c2n1C`, for which the TGI in the experiment on MOLT-4 leukemia is 49.6 µM; in the experiment on SNB-19 CNS, over 100 µM; in the experiment with SK-MEL-28 melanoma it was 56 µM; with SF-268 CNS it was over 100 µM; with SK-MEL-2 melanoma, 41.9 µM; in the experiment with NCI-H226 lung, 87.4 µM. The TGI in the experiment on OVCAR-8 ovarian is over 100 µM; in the experiment on COLO 205 colon, 21.5 µM; in the experiment with NCI-H522 lung, 86.4 µM.
As for `CCOP(=O)(OCC)C(c1ccc(F)cc1)N(C(=O)NC(F)(F)F)c1cccc(C(F)(F)F)c1` (configuration not stated), the TGI in the experiment on SK-MEL-5 melanoma, in the experiment with MOLT-4 leukemia, with SNB-19 CNS, in the experiment with SK-MEL-28 melanoma, in the experiment on SF-268 CNS and in the experiment on SK-MEL-2 melanoma was over 100 µM each time. Moreover, the TGI in the experiment on NCI-H226 lung, with OVCAR-8 ovarian, with COLO 205 colon and in the experiment on NCI-H522 lung was over 100 µM throughout.
With `CCC(C)NC1=NCC(C)S1` (configuration not stated), the TGI in the experiment with SK-MEL-5 melanoma, in the experiment with MOLT-4 leukemia, in the experiment with SNB-19 CNS, with SK-MEL-28 melanoma, in the experiment with SF-268 CNS and in the experiment on SK-MEL-2 melanoma was over 100 µM in each case. Moreover, the TGI in the experiment on NCI-H226 lung, in the experiment with COLO 205 colon and with NCI-H522 lung was over 100 µM throughout.
For `CN=C(SC)N(C)c1nc(=[N+](C)C)ss1`, the TGI in the experiment on SK-MEL-5 melanoma, in the experiment with MOLT-4 leukemia, in the experiment with SNB-19 CNS, in the experiment with SK-MEL-28 melanoma, with SF-268 CNS and in the experiment with SK-MEL-2 melanoma was over 100 µM in each case. Also, the TGI in the experiment on NCI-H226 lung, with OVCAR-8 ovarian and in the experiment with NCI-H522 lung was over 100 µM throughout.
`COc1ccccc1CNCCCN1C(=O)c2ccc3c4c(ccc(c24)C1=O)C(=O)N(CCCNCCNCCCN)C3=O`: the GI50 in the experiment with SK-MEL-5 melanoma was 1.57 µM; with MOLT-4 leukemia it was 1.73 µM; in the experiment on SNB-19 CNS, 2.18 µM; in the experiment on SK-MEL-28 melanoma, 3.03 µM; in the experiment on SF-268 CNS, 2.13 µM; with SK-MEL-2 melanoma, 2.67 µM. Also, the GI50 was 2.99 µM with NCI-H226 lung, 2.08 µM in the experiment on OVCAR-8 ovarian and 1.22 µM in the experiment on NCI-H522 lung. Further, the TGI was 3.02 µM in the experiment with SK-MEL-5 melanoma; 5.81 µM with MOLT-4 leukemia; 11.8 µM with SNB-19 CNS; 9.66 µM with SK-MEL-28 melanoma; 11.6 µM with SF-268 CNS; 6.49 µM in the experiment with SK-MEL-2 melanoma. The values for the TGI in the experiment on NCI-H226 lung, with OVCAR-8 ovarian and in the experiment with NCI-H522 lung were 21.3 µM, 11.7 µM and 3.71 µM, respectively.
As for `CCOC(=O)Cn1c(=O)ccn(COCCO)c1=O`, the TGI in the experiment on SK-MEL-5 melanoma, with MOLT-4 leukemia, in the experiment with SNB-19 CNS, in the experiment with SK-MEL-28 melanoma, in the experiment with SF-268 CNS and in the experiment with SK-MEL-2 melanoma was over 100 µM each time. Further, the TGI with OVCAR-8 ovarian, with COLO 205 colon and in the experiment on NCI-H522 lung was over 100 µM each time.
In the case of `CC1CC2=C(S(=O)(=O)c3ccccc3)CC(S(=O)(=O)c3ccccc3)(S(=O)(=O)c3ccccc3)CC21` (configuration not stated), the TGI in the experiment with SK-MEL-5 melanoma, in the experiment on MOLT-4 leukemia, in the experiment with SNB-19 CNS, in the experiment on SK-MEL-28 melanoma, in the experiment on SF-268 CNS and with SK-MEL-2 melanoma was over 100 µM throughout. The TGI with NCI-H226 lung, in the experiment on OVCAR-8 ovarian and with COLO 205 colon was over 100 µM each time.
Turning to `COc1cc2oc(-c3ccc(O)cc3)c(OC)c(=O)c2c(O)c1OC`, the GI50 in the experiment on SK-MEL-5 melanoma is 70.1 µM; with MOLT-4 leukemia, 27.4 µM; with SNB-19 CNS it was over 100 µM; in the experiment with SK-MEL-28 melanoma, over 100 µM; in the experiment on SF-268 CNS, 79 µM; in the experiment on SK-MEL-2 melanoma it was 39.2 µM. The GI50 with NCI-H226 lung was 45.7 µM; in the experiment on OVCAR-8 ovarian, 86.1 µM; with COLO 205 colon it was 32.1 µM; in the experiment on NCI-H522 lung it was 45.2 µM. The TGI with SK-MEL-5 melanoma, in the experiment with MOLT-4 leukemia, in the experiment with SNB-19 CNS, in the experiment with SK-MEL-28 melanoma, in the experiment with SF-268 CNS and in the experiment with SK-MEL-2 melanoma was over 100 µM in each case. In addition, the TGI with NCI-H226 lung, in the experiment on OVCAR-8 ovarian, in the experiment with COLO 205 colon and in the experiment on NCI-H522 lung was over 100 µM each time.
Take `COc1ccc(S(=O)(=O)c2ccccc2[N+](=O)[O-])cc1`: the TGI with SK-MEL-5 melanoma, in the experiment on MOLT-4 leukemia, in the experiment with SNB-19 CNS, with SK-MEL-28 melanoma, with SF-268 CNS and with SK-MEL-2 melanoma was over 100 µM throughout. The TGI with NCI-H226 lung, in the experiment with OVCAR-8 ovarian and with COLO 205 colon was over 100 µM each time.
Regarding `CCOC(=O)c1ccc(N[C@@H]2c3cc4c(cc3C(c3cc(OC)c(O)c(OC)c3)[C@H]3C(=O)OCC32)OCO4)cc1O` (some centres not stated), the TGI in the experiment with SK-MEL-5 melanoma was 3.02 µM; with MOLT-4 leukemia, 1.21 µM; with SNB-19 CNS, over 25.9 µM; in the experiment on SK-MEL-28 melanoma, 42 µM; in the experiment with SF-268 CNS, 25.3 µM; in the experiment with SK-MEL-2 melanoma it was 1.83 µM. Also, the TGI with NCI-H226 lung was 2.39 µM; in the experiment with OVCAR-8 ovarian, over 21.9 µM; in the experiment on COLO 205 colon, 7.69 µM; in the experiment with NCI-H522 lung it was 2.07 µM.
As for `COCCCNc1nc(N)c(C#N)c(C#N)c1C#N`, the TGI in the experiment with SK-MEL-5 melanoma, in the experiment with MOLT-4 leukemia, in the experiment on SNB-19 CNS, in the experiment with SK-MEL-28 melanoma, in the experiment with SF-268 CNS and in the experiment on SK-MEL-2 melanoma was over 10 µM in each case. In addition, the TGI with NCI-H226 lung, in the experiment with OVCAR-8 ovarian, in the experiment on COLO 205 colon and in the experiment on NCI-H522 lung was over 10 µM each time.
Regarding `Nc1nc([O-])c2c(n1)[n+](C1OC(CO)C(O)C1O)cn2CCO` (configuration not stated), the TGI in the experiment with SK-MEL-5 melanoma, in the experiment on SK-MEL-28 melanoma, with SF-268 CNS, in the experiment with SK-MEL-2 melanoma, in the experiment with NCI-H226 lung and in the experiment with OVCAR-8 ovarian was over 100 µM in each case. Besides, the TGI with COLO 205 colon and in the experiment with NCI-H522 lung was over 100 µM throughout.
On to `Clc1ccc(C[P+](c2ccccc2)(c2ccccc2)c2ccccc2)c(Cl)c1`, for which the TGI was found to be 3.38 µM in the experiment on SK-MEL-5 melanoma; 18.1 µM in the experiment on MOLT-4 leukemia; 13 µM in the experiment on SNB-19 CNS; 20.1 µM with SK-MEL-28 melanoma; 24 µM with SF-268 CNS; 7.71 µM in the experiment on SK-MEL-2 melanoma. The TGI in the experiment on NCI-H226 lung came to 7.77 µM; in the experiment with OVCAR-8 ovarian, 20.1 µM; with COLO 205 colon, 2.44 µM; in the experiment with NCI-H522 lung, 7.18 µM.
As to `CCOC(=O)CNC(=O)N(CC)C12CC3CC(CC(C3)C1)C2`, the TGI in the experiment on SK-MEL-5 melanoma was 195 µM; in the experiment with MOLT-4 leukemia it was 322 µM; with SNB-19 CNS, 430 µM; in the experiment with SK-MEL-28 melanoma, 560 µM; with SF-268 CNS it was 317 µM; in the experiment on SK-MEL-2 melanoma, 205 µM. For the same compound, the TGI in the experiment with NCI-H226 lung was found to be 371 µM; with OVCAR-8 ovarian it was 417 µM; with COLO 205 colon it was 227 µM; in the experiment with NCI-H522 lung, 323 µM.
As for `C[Si](C)(C)OC1CC(=O)OC1n1cc(F)c(=O)[nH]c1=O` (configuration not stated), the TGI in the experiment with SK-MEL-5 melanoma, with MOLT-4 leukemia, with SNB-19 CNS, with SK-MEL-28 melanoma, with SF-268 CNS and in the experiment on SK-MEL-2 melanoma was over 100 µM throughout. Moreover, the TGI in the experiment with NCI-H226 lung, with OVCAR-8 ovarian, in the experiment on COLO 205 colon and in the experiment on NCI-H522 lung was over 100 µM each time.
On to `CN(C)CC1CCCC(CN(C)C)C1OC(=O)c1ccccc1` (configuration not stated), for which the TGI in the experiment on SK-MEL-5 melanoma, with MOLT-4 leukemia, in the experiment with SK-MEL-28 melanoma, in the experiment with SF-268 CNS, with SK-MEL-2 melanoma and in the experiment on NCI-H226 lung was over 100 µM throughout. The TGI in the experiment with OVCAR-8 ovarian, with COLO 205 colon and in the experiment on NCI-H522 lung was over 100 µM in each case.
